The text below walks through data of the supplement of paper PMC10307832.

Assay in all cases: relative viability (nuclei count vs DMSO), 5 days (fraction); higher = more cells survive
Compound in assay [1]: CCN1C(=O)C2=CC(=C(N=C2N(C1=O)C3CC3)N)C(=O)N + CC1(C)CCC(c2ccc(Cl)cc2)=C(CN2CCN(c3ccc(C(=O)NS(=O)(=O)c4ccc(N[C@H](CCN5CCOCC5)CSc5ccccc5)c(S(=O)(=O)C(F)(F)F)c4)cc3)CC2)C1 [Navitoclax] (partner 0.5 µM)
In short, it runs like this: (§1)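 Lung cancer cell lines in 1536-well plates got either a single drug or a fixed anchor-drug dose together with five library-drug doses (not always all listed) in √10 steps, by pin tool, on the day after seeding. Nuclei were counted after 5 days, and relative viability is the treated-to-vehicle ratio of nuclei counts. Values are medians of duplicate plates.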

Compound in assay [2]: CCN1C(=O)C2=CC(=C(N=C2N(C1=O)C3CC3)N)C(=O)N + COc1cc2c(Oc3ccc(NC(=O)C4(C(=O)Nc5ccc(F)cc5)CC4)cc3F)ccnc2cc1OCCCN1CCOCC1 [Foretinib] (partner 0.25 µM)
A digest of the protocol:
as §1

Compound in assay [3]: CCN1C(=O)C2=CC(=C(N=C2N(C1=O)C3CC3)N)C(=O)N + COc1cccc2cc(-c3nc([C@H]4CC[C@H](C(=O)O)CC4)n4ncnc(N)c34)[nH]c12 [OSI-027] (partner 0.5 µM)
A digest of the protocol:
as §1

Compound in assay [4]: CCN1C(=O)C2=CC(=C(N=C2N(C1=O)C3CC3)N)C(=O)N + Cc1cc(Nc2cc(N3CCN(C)CC3)nc(Sc3ccc(NC(=O)C4CC4)cc3)n2)n[nH]1 [Tozasertib] (partner 0.1 µM)
In short, it runs like this: as §1

Compound in assay [5]: CCN1C(=O)C2=CC(=C(N=C2N(C1=O)C3CC3)N)C(=O)N + Nc1nc2[nH]cc(CCc3ccc(C(=O)N[C@@H](CCC(=O)O)C(=O)O)cc3)c2c(=O)[nH]1 [Pemetrexed] (partner 0.2 µM)
In short, it runs like this:
as §1

For the cell line PC-3 [JPC-3], the relative viability was 0.747 in assay [1] (first compound 0.253 µM); 0.838 in assay [1] (first compound 0.8 µM); 0.861 in assay [1] (first compound 2.53 µM); 0.755 in assay [1] (first compound 8 µM); 1.02 in assay [2] (first compound 0.253 µM); 1.03 in assay [2] (first compound 0.8 µM). The relative viability in assay [2] (first compound 2.53 µM) came to 1; in assay [2] (first compound 8 µM) it was 0.929; in assay [3] (first compound 0.253 µM), 0.746; in assay [3] (first compound 0.8 µM) it was 0.85; in assay [3] (first compound 2.53 µM) it was 0.735; in assay [3] (first compound 8 µM), 0.791. The relative viability in assay [4] (first compound 0.253 µM) stood at 0.911; in assay [4] (first compound 0.8 µM), 0.872; in assay [4] (first compound 2.53 µM), 0.925; in assay [4] (first compound 8 µM), 0.869; in assay [5] (first compound 0.253 µM), 1.1; in assay [5] (first compound 2.53 µM) it was 1.26. In addition, in assay [5] (first compound 8 µM), the relative viability is 1.2.
Turning to PC-14, the relative viability in assay [1] (first compound 0.253 µM) is 1.01; in assay [1] (first compound 0.8 µM), 1.06; in assay [1] (first compound 2.53 µM) it was 0.935; in assay [1] (first compound 8 µM), 0.956; in assay [2] (first compound 0.253 µM), 0.914; in assay [2] (first compound 0.8 µM) it was 0.961. In addition, the relative viability in assay [2] (first compound 2.53 µM) came out at 0.954; in assay [2] (first compound 8 µM) it was 0.969; in assay [3] (first compound 0.253 µM), 0.856; in assay [3] (first compound 0.8 µM) it was 0.799; in assay [3] (first compound 2.53 µM) it was 0.831; in assay [3] (first compound 8 µM), 0.907. In addition, the relative viability in assay [4] (first compound 0.253 µM) amounted to 0.597; in assay [4] (first compound 0.8 µM) it was 0.604; in assay [4] (first compound 2.53 µM), 0.525; in assay [4] (first compound 8 µM) it was 0.64; in assay [5] (first compound 0.253 µM) it was 0.133; in assay [5] (first compound 0.8 µM), 0.14. The values for the relative viability in assay [5] (first compound 2.53 µM) and in assay [5] (first compound 8 µM) were 0.141 and 0.149, respectively.
As for RERF-LC-KJ, the relative viability came out at 1.21 in assay [1] (first compound 0.253 µM); 0.947 in assay [1] (first compound 0.8 µM); 0.767 in assay [1] (first compound 2.53 µM); 0.923 in assay [1] (first compound 8 µM); 0.868 in assay [2] (first compound 0.253 µM); 0.875 in assay [2] (first compound 0.8 µM). The relative viability is 0.898 in assay [2] (first compound 2.53 µM); 0.884 in assay [2] (first compound 8 µM); 0.6 in assay [3] (first compound 0.253 µM); 0.638 in assay [3] (first compound 0.8 µM); 0.584 in assay [3] (first compound 2.53 µM); 0.632 in assay [3] (first compound 8 µM). The relative viability in assay [4] (first compound 0.253 µM) was determined as 0.498; in assay [4] (first compound 0.8 µM), 0.499; in assay [4] (first compound 2.53 µM), 0.479; in assay [4] (first compound 8 µM) it was 0.441; in assay [5] (first compound 0.253 µM), 0.473; in assay [5] (first compound 0.8 µM), 0.448. Further, the relative viability in assay [5] (first compound 2.53 µM) was 0.472; in assay [5] (first compound 8 µM), 0.481.
In the case of SK-LU-1, the relative viability came out at 0.797 in assay [1] (first compound 0.253 µM); 0.855 in assay [1] (first compound 0.8 µM); 0.977 in assay [1] (first compound 2.53 µM); 0.865 in assay [1] (first compound 8 µM); 0.925 in assay [2] (first compound 0.253 µM); 0.799 in assay [2] (first compound 0.8 µM). The relative viability turned out to be 0.839 in assay [2] (first compound 2.53 µM); 1 in assay [2] (first compound 8 µM); 0.414 in assay [3] (first compound 0.253 µM); 0.381 in assay [3] (first compound 0.8 µM); 0.353 in assay [3] (first compound 2.53 µM); 0.369 in assay [3] (first compound 8 µM). For the same cell line, the relative viability stood at 0.349 in assay [4] (first compound 0.253 µM); 0.305 in assay [4] (first compound 0.8 µM); 0.324 in assay [4] (first compound 2.53 µM); 0.306 in assay [4] (first compound 8 µM); 0.933 in assay [5] (first compound 0.253 µM); 1.06 in assay [5] (first compound 0.8 µM). Moreover, the results for the relative viability in assay [5] (first compound 2.53 µM) and in assay [5] (first compound 8 µM) were 1 and 1.04, respectively.
Regarding SK-MES-1, the relative viability in assay [1] (first compound 0.253 µM) came out at 1.03; in assay [1] (first compound 0.8 µM) it was 1.28; in assay [1] (first compound 2.53 µM) it was 1.22; in assay [1] (first compound 8 µM), 1.27; in assay [2] (first compound 0.253 µM) it was 0.946; in assay [2] (first compound 0.8 µM), 0.876. Moreover, the relative viability was found to be 0.94 in assay [2] (first compound 2.53 µM); 0.837 in assay [2] (first compound 8 µM); 0.626 in assay [3] (first compound 0.253 µM); 0.564 in assay [3] (first compound 0.8 µM); 0.588 in assay [3] (first compound 2.53 µM); 0.583 in assay [3] (first compound 8 µM). Further, the relative viability in assay [4] (first compound 0.253 µM) was 0.902; in assay [4] (first compound 0.8 µM), 0.931; in assay [4] (first compound 2.53 µM) it was 0.85; in assay [4] (first compound 8 µM), 0.918; in assay [5] (first compound 0.253 µM), 0.981; in assay [5] (first compound 0.8 µM) it was 0.911. The relative viability in assay [5] (first compound 2.53 µM) was 0.858; in assay [5] (first compound 8 µM) it was 0.882.
Consider SW 1573, for which the relative viability in assay [1] (first compound 0.253 µM) amounted to 0.949; in assay [1] (first compound 0.8 µM) it was 0.977; in assay [1] (first compound 2.53 µM), 0.919; in assay [1] (first compound 8 µM) it was 0.979; in assay [2] (first compound 0.253 µM), 0.978; in assay [2] (first compound 0.8 µM) it was 0.762. In addition, the relative viability in assay [2] (first compound 2.53 µM) was found to be 0.832; in assay [2] (first compound 8 µM) it was 0.933; in assay [3] (first compound 0.253 µM), 0.534; in assay [3] (first compound 0.8 µM) it was 0.612; in assay [3] (first compound 2.53 µM), 0.675; in assay [3] (first compound 8 µM) it was 0.587. The relative viability stood at 0.172 in assay [4] (first compound 0.253 µM); 0.174 in assay [4] (first compound 0.8 µM); 0.142 in assay [4] (first compound 2.53 µM); 0.219 in assay [4] (first compound 8 µM); 0.855 in assay [5] (first compound 0.253 µM); 0.884 in assay [5] (first compound 0.8 µM). The relative viability in assay [5] (first compound 2.53 µM) is 0.844; in assay [5] (first compound 8 µM) it was 0.791.
On to UMC-11, for which the relative viability stood at 0.312 in assay [1] (first compound 0.253 µM); 0.277 in assay [1] (first compound 0.8 µM); 0.308 in assay [1] (first compound 2.53 µM); 0.324 in assay [1] (first compound 8 µM); 1.02 in assay [2] (first compound 0.253 µM); 1.05 in assay [2] (first compound 0.8 µM). Moreover, the relative viability in assay [2] (first compound 2.53 µM) worked out at 1.1; in assay [2] (first compound 8 µM), 1.13; in assay [3] (first compound 0.253 µM), 0.5; in assay [3] (first compound 0.8 µM), 0.463; in assay [3] (first compound 2.53 µM), 0.506; in assay [3] (first compound 8 µM), 0.521. Besides, the relative viability in assay [4] (first compound 0.253 µM) is 0.2; in assay [4] (first compound 0.8 µM) it was 0.213; in assay [4] (first compound 2.53 µM), 0.188; in assay [4] (first compound 8 µM), 0.206; in assay [5] (first compound 0.253 µM) it was 0.867; in assay [5] (first compound 0.8 µM) it was 0.846. Further, the relative viability was found to be 0.761 in assay [5] (first compound 2.53 µM) and 0.845 in assay [5] (first compound 8 µM).
